Assay results reported in EP2100894A1, “Pyridopyrimidines used as Plk1 (polo-like kinase) inhibitors” (4SC AG, priority 2008, dated 2009).

Target: T1, PIk1 (Homo sapiens, UniProt P53350)
T1 construct: His tag (histidine tag) (N); made in house; host or cells: SF9 insect cells
Assay: PIk1 kinase activity inhibition assay (33P incorporation into alpha casein, flash plates)
Format: biochemical
Details: recombinant N-terminally histidine-tagged PIk1, alpha casein as substrate, 100 nM Li-ATP, 80 minutes at 30°C
Outline: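 N-terminally His-tagged human Plk1 from SF9 cells (50–100 ng/well) phosphorylated alpha casein with 100 nM Li-ATP plus 33P-ATP in HEPES pH 7.5, MgCl2/MnCl2 buffer for 80 minutes at 30°C. After H3PO4 stop and washing, casein-bound 33P was counted on scintillator-coated flash plates to derive IC50.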

T1 sequence (P53350 whole entry): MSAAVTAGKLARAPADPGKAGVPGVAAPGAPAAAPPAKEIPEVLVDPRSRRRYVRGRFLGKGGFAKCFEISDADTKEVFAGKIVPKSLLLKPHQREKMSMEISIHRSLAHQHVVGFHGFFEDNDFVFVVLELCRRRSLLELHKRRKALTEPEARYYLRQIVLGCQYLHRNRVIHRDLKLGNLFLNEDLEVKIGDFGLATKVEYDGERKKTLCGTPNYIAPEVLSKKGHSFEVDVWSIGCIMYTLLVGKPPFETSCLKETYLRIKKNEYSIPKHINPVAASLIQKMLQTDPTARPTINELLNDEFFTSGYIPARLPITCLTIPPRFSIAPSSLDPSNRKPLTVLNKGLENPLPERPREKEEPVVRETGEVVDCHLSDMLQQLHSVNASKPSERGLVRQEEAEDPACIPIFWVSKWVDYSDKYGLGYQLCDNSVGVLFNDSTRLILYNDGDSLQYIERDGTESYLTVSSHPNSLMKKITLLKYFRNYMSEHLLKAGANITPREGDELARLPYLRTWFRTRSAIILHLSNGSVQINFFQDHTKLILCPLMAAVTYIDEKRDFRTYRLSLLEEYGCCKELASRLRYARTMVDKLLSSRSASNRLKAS

IC50: < 0.01 µM
SMILES: COc1cc(C(=O)NC2CCN(C)CC2)ccc1Nc1ncc2c(n1)c(-c1cc[nH]c1)c(OCC1CC1)c(=O)n2C [Example 76, 4-{[7-(cyclopropylmethoxy)-5-methyl-6-oxo-8-(1H-pyrrol-3-yl)-5,6-dihydro-pyrido[3,2-d]pyrimidin-2-yl]amino}-3-methoxy-N-(1-methylpiperidin-4-yl)benzamide]
